Consider 1 compound from patent US20130102538A1, “METHOD OF TREATING ALZHEIMER'S DISEASE USING PHARMACOLOGICAL CHAPERONES TO INCREASE PRESENILIN FUNCTION AND GAMMA-SECRETASE ACTIVITY” (AMICUS THERAPEUTICS, INC., priority 2010, published 2013).

Data set [1] addresses γ-secretase (Homo sapiens, UniProt P49768). Put plainly: γ-secretase inhibitory IC50 of compound A. The following applies: γ-secretase inhibition, compared with brain levels.
Data set [2] can be described thus: Brain concentration of compound A by LCMS. In kind it is in vivo. The conditions noted are these: C57BL6, mouse, oral, 30 mg/kg, mice, read-out: brain t1/2 (converted). The method, then: C57BL6 mice were treated by oral gavage of 30 mg/kg compound A (0.5% methylcellulose carrier) once a day for 4 consecutive days. After the final dose, nine groups of animals (5 animals per group) were sacrificed at different time points ranging from 15 min. post final dose up to 48 hours post final dose (plus an untreated group). Blood was collected and mouse brain samples were minced and homogenized in water using a FastPrep homogenizer (Thermo Scientific). Plasma and brain homogenates were extracted with acetonitrile for measurement of compound A concentrations by LCMS. For biochemical analysis, brains were homogenized (250 mM sucrose, 50 mM Tris, pH 7.5, 1 mM EDTA plus protease inhibitors) and separated into a membrane fraction and soluble fraction by ultracentrifugation at 100,000 g for 1 hr. […] Total protein was measured by BCA (Pierce) and 30 ug of each sample was separated by SDS/PAGE and analyzed by Western blot. […] Chemiluminescence data was imaged using an Alpha Innotech FluorChem Q imager and band quantification was carried out using densitometry software AlphaViewQ (Alpha Innotech). […] Abeta40 was quantified from diethylamine extracts using BetaMark Abeta40 ELISA kit (Covance); Abeta42 was quantified from diethylamine extracts using the High Sensitivity Abeta42 ELISA kit (Wako).

A further data set deals with T1, presenilin 1 (Mus musculus, UniProt P49769).
T1 construct: brain levels of mature PS1 remain elevated for well after compound A and α-CTFs have returned to baseline levels; The mature form of presenlin is a heterodimer consisting of a ˜30 kDa NH2-terminal fragment (NTF) and a ˜20 kDa C-terminal fragment; from tissue; host or cells: brain membrane fraction of C57BL6 mice
Put plainly: In vivo brain PS1 levels in mice after compound A, western blot. Also noted: species or system C57BL6 mice. The following applies: 30 mg/kg oral once daily 4 days. The method, then: (§1) Mice were treated via gavage once daily for […] with 30 mg/Kg of compound A and then necropsied 0-48 hours after the final dose was administered.
(§2) C57BL6 mice were treated by oral gavage of 30 mg/kg compound A (0.5% methylcellulose carrier) once a day for 4 consecutive days. After the final dose, nine groups of animals (5 animals per group) were sacrificed at different time points ranging from 15 min. post final dose up to 48 hours post final dose (plus an untreated group). Blood was collected and mouse brain samples were minced and homogenized in water using a FastPrep homogenizer (Thermo Scientific). Plasma and brain homogenates were extracted with acetonitrile for measurement of compound A concentrations by LCMS. For biochemical analysis, brains were homogenized (250 mM sucrose, 50 mM Tris, pH 7.5, 1 mM EDTA plus protease inhibitors) and separated into a membrane fraction and soluble fraction by ultracentrifugation at 100,000 g for 1 hr. The membrane fraction was solubilized in RIPA buffer (1% TX100, 0.5% Taurodexoycholate, 0.1% SDS in TBS+PI) and clarified by centrifugation. Total protein was measured by BCA (Pierce) and 30 ug of each sample was separated by SDS/PAGE and analyzed by Western blot. The following antibodies were used: PS1 ( 1/1000 Abcam no. Ab10281); calnexin ( 1/1000 Abcam no. Ab10286) and APP-CTF ( 1/1000 Anaspec 54096). Western blots were developed using an alkaline phosphatase anti-rabbit secondary and an alkaline phosphatase chemiluminescent substrate. Chemiluminescence data was imaged using an Alpha Innotech FluorChem Q imager and band quantification was carried out using densitometry software AlphaViewQ (Alpha Innotech). […] Abeta40 was quantified from diethylamine extracts using BetaMark Abeta40 ELISA kit (Covance); Abeta42 was quantified from diethylamine extracts using the High Sensitivity Abeta42 ELISA kit (Wako).
Background: Immunoblotting shows a protein as a band on a membrane.

Data set [3] concerns γ-secretase. Put plainly: In vivo brain α-CTF, Aβ40 and Aβ42 levels in mice after compound A. Also noted: species or system C57BL6 mice. The method, then: as §1, §2

The structures appear in SMILES notation.

For orientation: IC50 means the concentration that gives 50% inhibition. Read a high IC50 as weaker potency.

On γ-secretase [1], `C[C@H](OC(=O)NCC(F)(F)C(F)(F)F)C(=O)N[C@@H]1C(=O)N(C)c2ccccc2-c2ccccc21` [Compound A, (S)-1-(((S)-5-methyl-6-oxo-6,7-dihydro-5H-dibenzo[b,d]azepin-7-yl)amino)-1-oxopropan-2-yl (2,2,3,3,3-pentafluoropropyl)carbamate] gave an IC50 of approximately 60 nM. Further, the half-life in data set [2] was approximately 3.5 h. For the same compound, the “brain presenilin levels above untreated levels” value at presenilin 1 (at 24 hours) worked out at 50%. For the same compound, the “increase of brain presenilin levels” value on presenilin 1 (within 1 hour of washout) is 50%. Besides, the “maximum increase of brain presenilin levels” value at presenilin 1 (within 8 hours of washout) is given as 2 fold. The “reduction of brain Aβ42 levels relative to untreated controls” value in the data set with γ-secretase [3] (30 mg/kg oral once daily 4 days, 48 hrs after the final dose) was 40%. In the data set with γ-secretase [3] (30 mg/kg oral once daily 4 days, washout), the “Aβ42/Aβ40 ratio in brain” value was “reduced”. Further, the “time after final dose at which CTF levels begin to drop” value with γ-secretase [3] (30 mg/kg oral, brain α-CTFs) came to 2 h.
